Data: ChEMBL document CHEMBL1133592, “trans-1-[(2-Phenylcyclopropyl)methyl]-4-arylpiperazines: mixed dopamine D(2)/D(4) receptor antagonists as potential antipsychotic agents” (J Med Chem, 2000)

Key:
[1] = Half-life determined upon exposure to rat liver microsomes; type: ADME, Microsome
[2] = Half-life determined upon exposure to human liver microsomes; type: ADME, Microsome
[3] = target: T1, Adrenergic receptor alpha-1 (Rattus norvegicus, UniProt P15823+P23944+P43140)
T1 sequence (P15823 whole entry): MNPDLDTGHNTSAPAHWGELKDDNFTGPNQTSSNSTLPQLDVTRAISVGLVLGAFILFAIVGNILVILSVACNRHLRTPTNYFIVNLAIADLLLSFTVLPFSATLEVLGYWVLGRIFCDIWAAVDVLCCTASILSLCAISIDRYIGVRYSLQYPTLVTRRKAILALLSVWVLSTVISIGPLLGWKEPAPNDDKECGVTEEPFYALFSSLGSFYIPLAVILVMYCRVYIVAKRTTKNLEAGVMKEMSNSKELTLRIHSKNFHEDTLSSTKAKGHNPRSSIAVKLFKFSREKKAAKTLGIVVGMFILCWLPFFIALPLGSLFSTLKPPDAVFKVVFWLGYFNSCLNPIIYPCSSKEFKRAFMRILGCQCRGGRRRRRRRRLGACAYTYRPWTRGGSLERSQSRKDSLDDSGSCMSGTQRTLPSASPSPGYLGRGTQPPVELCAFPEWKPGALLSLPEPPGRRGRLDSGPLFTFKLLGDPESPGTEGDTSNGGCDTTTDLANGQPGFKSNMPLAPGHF
T1 sequence (P23944 whole entry): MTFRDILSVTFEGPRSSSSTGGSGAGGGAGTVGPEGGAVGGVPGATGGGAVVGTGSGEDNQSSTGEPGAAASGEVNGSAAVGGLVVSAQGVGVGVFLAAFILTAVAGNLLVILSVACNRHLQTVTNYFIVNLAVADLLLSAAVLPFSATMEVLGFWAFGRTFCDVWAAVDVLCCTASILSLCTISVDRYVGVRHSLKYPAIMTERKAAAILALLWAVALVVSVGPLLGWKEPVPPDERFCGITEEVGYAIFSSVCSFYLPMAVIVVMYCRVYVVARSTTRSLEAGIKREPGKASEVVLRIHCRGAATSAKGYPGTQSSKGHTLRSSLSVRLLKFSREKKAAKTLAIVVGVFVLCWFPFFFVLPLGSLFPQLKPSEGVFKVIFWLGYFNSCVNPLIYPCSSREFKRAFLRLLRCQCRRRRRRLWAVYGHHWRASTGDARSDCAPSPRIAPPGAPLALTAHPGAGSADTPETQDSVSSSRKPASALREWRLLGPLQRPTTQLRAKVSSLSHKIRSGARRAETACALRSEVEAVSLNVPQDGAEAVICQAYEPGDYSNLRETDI
T1 sequence (P43140 whole entry): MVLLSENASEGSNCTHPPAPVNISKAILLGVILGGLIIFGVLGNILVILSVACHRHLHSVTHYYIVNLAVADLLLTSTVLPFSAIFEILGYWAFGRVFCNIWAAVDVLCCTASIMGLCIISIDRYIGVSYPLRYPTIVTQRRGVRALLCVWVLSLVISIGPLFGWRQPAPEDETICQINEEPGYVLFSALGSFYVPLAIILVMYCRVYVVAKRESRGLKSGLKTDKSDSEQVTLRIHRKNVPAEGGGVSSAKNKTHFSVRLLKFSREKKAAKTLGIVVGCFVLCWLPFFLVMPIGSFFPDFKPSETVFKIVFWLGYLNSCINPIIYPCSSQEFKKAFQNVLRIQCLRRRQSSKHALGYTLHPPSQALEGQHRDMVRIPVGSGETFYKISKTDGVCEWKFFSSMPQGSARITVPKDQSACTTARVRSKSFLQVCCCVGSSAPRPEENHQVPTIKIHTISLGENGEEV
Description: Binding affinity to alpha-1 adrenergic receptor from rat brain homogenate, using [3H]- prazosin as the competitive ligand

Rattus norvegicus [4] = species on record: Rattus norvegicus; assay: animal or person; details: read-out: MED
Description: Minimum effective dose that produced a significant effect relative to the amphetamine alone control using a Fisher's LSD post hoc test (P<0.05)

Rattus norvegicus [5] = species on record: Rattus norvegicus; assay: animal or person; details: read-out: MED; remark: listed apart in the source
Description: Minimum effective dose observed in rat catalepsy experiments

Row | SMILES | IC50 [3] | other results
1 | Br.Cc1ccc(N2CCN(C[C@@H]3C[C@H]3c3ccccc3)CC2)c(C)c1 | 131 nM | half-life [1]: 3 min; half-life [2]: 16 min
2 | Br.Cc1cc(F)ccc1N1CCN(C[C@H]2C[C@@H]2c2ccccc2)CC1 | 31 nM | –
3 | Br.Cc1cc(Cl)ccc1N1CCN(C[C@H]2C[C@@H]2c2ccccc2)CC1 | 307 nM | –
4 | Br.COc1cc(Cl)ccc1N1CCN(C[C@H]2C[C@@H]2c2ccccc2)CC1 | 29 nM | –
5 | Br.Br.COc1cc(F)ccc1N1CCN(C[C@H]2C[C@@H]2c2ccccc2)CC1 | 14 nM | –
6 | Br.Clc1ccc(N2CCN(C[C@H]3C[C@@H]3c3ccccc3)CC2)c(Cl)c1 | 322 nM | half-life [1]: 2 min; half-life [2]: 19 min
7 | Br.Cc1ccc(N2CCN(C[C@H]3C[C@@H]3c3ccccc3)CC2)c(C)c1 | 137 nM | –
8 | Clc1ccc(N2CCN(C[C@@H]3C[C@H]3c3ccccc3)CC2)c(Cl)c1 | 348 nM | –
9 | Br.Oc1ccc([C@H]2C[C@@H]2CN2CCN(c3ccc(Cl)cc3Cl)CC2)cc1 (racemic) | 74 nM | –
10 | Br.c1ccc([C@H]2C[C@@H]2CN2CCN(c3cccnc3)CC2)cc1 (racemic) | > 1246 nM | –
11 | Br.COc1c(Cl)cc(N2CCN(C[C@H]3C[C@@H]3c3ccccc3)CC2)cc1Cl (racemic) | 193 nM | –
12 | Br.COc1ccc(Cl)cc1N1CCN(C[C@H]2C[C@@H]2c2ccccc2)CC1 (racemic) | 8 nM | –
13 | Br.COc1ccc([C@H]2C[C@@H]2CN2CCN(c3ccc(Cl)cc3Cl)CC2)cc1 (racemic) | 61 nM | –
14 | Br.c1ccc([C@H]2C[C@@H]2CN2CCN(c3ccncc3)CC2)cc1 (racemic) | > 10000 nM | –
15 | Br.Clc1ccc(N2CCN(C[C@H]3C[C@@H]3c3ccccc3)CC2)cc1Cl (racemic) | 45 nM | –
16 | Br.Clc1cccc(N2CCN(C[C@H]3C[C@@H]3c3ccccc3)CC2)c1Cl (racemic) | 329 nM | –

Row | SMILES | IC50 [3] | other results
17 | Br.Clc1ccccc1N1CCN(C[C@H]2C[C@@H]2c2ccccc2)CC1 (racemic) | 10 nM | –
18 | Br.COc1cccc(N2CCN(C[C@H]3C[C@@H]3c3ccccc3)CC2)c1 (racemic) | 324 nM | –
19 | Br.Fc1ccc([C@H]2C[C@@H]2CN2CCN(c3ccccc3Cl)CC2)cc1 (racemic) | 9 nM | –
20 | Br.Clc1ccc(N2CCN(C[C@H]3C[C@@H]3c3ccccc3)CC2)cc1 (racemic) | 81 nM | –
21 | Br.Clc1cccc(N2CCN(C[C@H]3C[C@@H]3c3ccccc3)CC2)c1 (racemic) | 70 nM | –
22 | Br.Fc1ccc([C@H]2C[C@@H]2CN2CCN(c3ccc(Cl)cc3)CC2)cc1 (racemic) | 61 nM | –
23 | Br.COc1ccc(N2CCN(C[C@H]3C[C@@H]3c3ccccc3)CC2)cc1 (racemic) | 633 nM | –
24 | Br.Clc1cc(Cl)cc(N2CCN(C[C@H]3C[C@@H]3c3ccccc3)CC2)c1 (racemic) | 1341 nM | –
25 | Cl.c1ccc([C@H]2C[C@@H]2CN2CCN(c3ncccn3)CC2)cc1 (racemic) | 168 nM | –
26 | Cl.c1ccc([C@H]2C[C@@H]2CN2CCN(c3ccccn3)CC2)cc1 (racemic) | 55 nM | –
27 | Br.Clc1ccc(N2CCN(C[C@H]3C[C@@H]3c3ccccc3)CC2)c(Cl)c1 (racemic) | 311 nM | –
28 | Br.Cc1ccc(N2CCN(CC3CC3c3ccccc3)CC2)c(C)c1 (racemic) | 144 nM | –
29 | c1ccc([C@H]2C[C@@H]2CN2CCN(c3ccccc3)CC2)cc1 (racemic) | 22 nM | –
30 | CN1CCN(C2=Nc3cc(Cl)ccc3Nc3ccccc32)CC1 [CLOZAPINE] | – | minimal effective dose (Rattus norvegicus [4]): 0.5 mg/kg
31 | O=C(CCCN1CCC(O)(c2ccc(Cl)cc2)CC1)c1ccc(F)cc1 [HALOPERIDOL] | – | minimal effective dose (Rattus norvegicus [5]): 0.5 mg/kg; minimal effective dose (Rattus norvegicus [4]): 0.06 mg/kg
